Assay results reported in paper doi:10.1101/2020.08.17.255026v1 (biorxiv, 2020).

Assays:
PxRDL1 [1] = target: T1, PxRDL1 (Plutella xylostella, UniProt C0L7I5); test: cell-based; design: species or system Xenopus laevis oocytes
T1 sequence (C0L7I5 26-485): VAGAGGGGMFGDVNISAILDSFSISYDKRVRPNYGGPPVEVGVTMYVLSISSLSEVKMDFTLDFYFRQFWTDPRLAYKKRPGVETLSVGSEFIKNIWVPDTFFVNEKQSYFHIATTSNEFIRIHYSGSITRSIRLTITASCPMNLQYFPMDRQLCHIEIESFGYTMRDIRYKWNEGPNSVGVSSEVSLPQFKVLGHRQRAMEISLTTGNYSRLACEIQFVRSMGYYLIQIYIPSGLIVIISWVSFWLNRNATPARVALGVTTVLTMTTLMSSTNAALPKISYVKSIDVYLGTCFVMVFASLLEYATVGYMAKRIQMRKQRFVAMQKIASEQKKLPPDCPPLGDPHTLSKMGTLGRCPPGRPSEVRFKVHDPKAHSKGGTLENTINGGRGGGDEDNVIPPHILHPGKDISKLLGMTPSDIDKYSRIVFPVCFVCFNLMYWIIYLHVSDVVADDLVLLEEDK

PxRDL2 [2] = target: T2, PxRDL2 (Plutella xylostella, UniProt C0L7I7); test: two-electrode voltage clamp, Xenopus oocytes; format: cell-based
T2 sequence (C0L7I7 30-520): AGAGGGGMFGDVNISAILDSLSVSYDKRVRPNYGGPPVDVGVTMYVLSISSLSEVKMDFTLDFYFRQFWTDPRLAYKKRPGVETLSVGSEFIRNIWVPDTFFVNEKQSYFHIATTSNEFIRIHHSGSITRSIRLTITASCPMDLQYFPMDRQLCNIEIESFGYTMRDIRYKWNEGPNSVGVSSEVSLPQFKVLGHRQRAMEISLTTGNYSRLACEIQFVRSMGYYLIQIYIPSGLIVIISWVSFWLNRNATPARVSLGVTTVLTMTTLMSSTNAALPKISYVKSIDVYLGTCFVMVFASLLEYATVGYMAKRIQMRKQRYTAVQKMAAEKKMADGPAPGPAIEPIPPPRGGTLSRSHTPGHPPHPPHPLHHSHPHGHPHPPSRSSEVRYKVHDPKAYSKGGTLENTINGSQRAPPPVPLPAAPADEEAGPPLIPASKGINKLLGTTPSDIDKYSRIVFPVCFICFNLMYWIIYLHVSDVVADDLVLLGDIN

PxRDL1 [3] = target: T1, PxRDL1; test: cell-based; design: species or system Xenopus laevis oocytes; remark: listed apart in the source
PxRDL2 [4] = target: T2, PxRDL2; test: two-electrode voltage clamp, Xenopus oocytes; format: cell-based; remark: listed apart in the source

EC50 (PxRDL1 [1]) | EC50 (PxRDL2 [2]) | Structure (SMILES) | IC50 (PxRDL1 [3]) | IC50 (PxRDL2 [4])
20.8 ± 5.99 µM | 153 µM | NCCCC(=O)O [GABA] | – | –
– | – | N#Cc1nn(-c2c(Cl)cc(C(F)(F)F)cc2Cl)c(N)c1[S+]([O-])C(F)(F)F (stereo not shown) [fipronil] | 130 ± 10 nM | 5.23 µM
